US20180155386A1, “PROGESTERONE ANTAGONISTS” (Evestra, Inc., priority 2011, published 2018)

How the values were obtained:
[1] = tested on: nidation (implantation) sites in pregnant rats; experiment: Antinidation test in rat; format: in vivo, rats (Sprague-Daley); settings: rats with implantation sites / rats treated; 3 mg/day s.c. from day 5 of pregnancy, counted at day 9; 0/3 = full progesterone antagonist
Method: For every compound to be screened in rats (Sprague-Daley) 3 control rats (vehicle treated, s.c.), 3 rats treated (s.c.) with a known progestin antagonist and 3 rats treated (s.c.) with the test compound (3 mg/day) are used. Female rats will be placed with male rats for 3 to 4 days and exam the vagina for sperm plugs every morning. The presence of a sperm plug will indicate day 1 of pregnancy. Pregnant rats will be treated daily with 3 mg of the screened compound at beginning on day 5 of pregnancy. At day 9 of gestation the rats will be euthanized and nidation sites counted.

[2] = tested on: uterine weight of non-pregnant guinea pigs; experiment: Uterine weights of guinea pigs; format: in vivo; settings: 10 mg s.c. from day 10 of cycle; sacrifice day 18; untreated guinea pig 1.2 g; higher than 1.2 g indicates pure progesterone antagonistic activity
Method: 3 Non-pregnant guinea pigs in the luteal phase of the cycle will be treated with 10 mg of the compound subcutaneously beginning on day 10 of the cycle. Animals were sacrificed on day 18 after the start of the treatment and the uterine weights were obtained at the time of sacrifice. Comparisons will be made to onapristone-treated animals at 10 mg/animal/day s.c

[3] = target: T1, progesterone receptor-LBD-UAS-bla HEK 293T cells (Homo sapiens, UniProt P06401); experiment: Progesterone Antagonist Screen (GeneBLAzer Beta-lactamase reporter, activated by control agonist R5020); format: cell-based; settings: values relative to RU486, which is 100%; HEK 293T reporter cells, agonist R5020 at EC80
T1 construct: host or cells: HEK 293T
T1 sequence (P06401 679-913 limits assumed): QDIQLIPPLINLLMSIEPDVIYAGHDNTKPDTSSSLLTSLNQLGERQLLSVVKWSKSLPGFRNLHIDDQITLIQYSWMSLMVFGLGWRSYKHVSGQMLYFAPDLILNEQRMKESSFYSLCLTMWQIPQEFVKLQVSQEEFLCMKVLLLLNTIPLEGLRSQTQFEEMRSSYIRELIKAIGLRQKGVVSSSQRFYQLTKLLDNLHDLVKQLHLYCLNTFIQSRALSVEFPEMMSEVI
Method: Determination of the agonist/antagonist nature of the test compounds was carried out using Invitrogen's SelectScreen™ Cell-based nuclear receptor profiling service which uses the GeneBLAzer® Beta-lactamase reporter technology. Basically this assay uses a Beta-lactamase cDNA under transcriptional control of an Upstream Activator Sequence (UAS). The UAS is activated by the GAL4 transcription factor DNA binding domain (DBD), which is expressed as a fusion protein with the target receptor ligand binding domain (LBD). Upon ligand binding, the GAL4(DBD)-NR(LDB) binds to the UAS, which controls transcription of Beta-lactamase. Beta-lactamase cleaves a special engineered fluorescent substrate which results in a change in the measured fluorescence wavelength.
The generalized protocol used for the Progesterone Antagonist Screen, activated by control Agonist R5020 is as follows:
The progesterone receptor-LBD-UAS-bla HEK 293T cells are thawed and prepared as described above for the Agonist screen. 4 μL of a 10× serial dilution of control antagonist RU-486 (starting concentration, 100 nM) or test compounds are added to appropriate wells of a TC-Treated assay plate. 32 μL of cell suspension is added to the wells which is then pre-incubated at 37° C./5% CO2 in a humidified incubator with test compounds and control antagonist titration for 30 minutes. 4 μL of a 10× control agonist (see above) at the predetermined EC80 concentration is added to wells containing the control antagonist or test compounds. The plate is incubated for 16-24 hours at 37° C./5% CO2 in a humidified incubator. 8 μL of 1 μM Substrate Loading Solution is added to each well and the plate is incubated for 2 hours at room temperature. The plate is then read on a fluorescence plate reader (Tecan Safire).

[4] = tested on: human breast cancer cell line T47D; experiment: In vitro antiproliferative activity in human breast cancer cell line T47D (MTT); format: cell-based; settings: 168 h, T47D cells, 7 days after cell seeding
Method: Cells from frozen stock were expanded in T75 cell culture flasks. For the experiment, cells in the logarithmic growth phase (70% confluent) were cultivated for 3 day without estradiol and then washed with PBS, detached by trypsination and suspended in 5 ml of fresh RPMI-1640 medium. Cells were centrifuged for 5 min at 1000 rpm and the pellet was resuspended in RPMI-1640 medium.
Cells were seeded in 96-well plates with a density of 5000 cells/well/in 0.18 mL RPMI-1640 medium. Cells were allowed to attach for 24 h. Visual control for viability at 24 h and cell culture medium change. At this time point, compounds were added in 20 μl to the final concentration. After 3 days medium and compounds where changed again. Finally, 7 days after cell seeding, 20 μl MTT-solution was added to each well and 4 h later the formed tetrazolium salt was measured with a photometer.

Row | SMILES | Implantation Sites [1] | Uterine Weights of Guinea Pigs Treated with antiprogestins (grams) [2] [grams] | Emax [3] [%] | IC50 [4] [nM]
1 | CN(C)c1ccc([C@H]2C[C@]3(C)[C@@H](CC[C@]3(O)CCCO)[C@@H]3CCC4=CC(=O)CCC4=C32)cc1 [ZK98299, reference compound] | 2/3 | 1.07 | – | –
2 | C=C1CCO[C@]12CCC1C3CCC4=CC(=O)CCC4=C3[C@@H](c3ccc(C(=O)C4CC4)cc3)C[C@@]12C (stereo partly drawn) [Compound 2e, 11β-(4′-[Cyclopropylcarbonyl]phenyl)-17,23-epoxy-19,24-dinor-17α-chola-4,9,20-triene-3-one] | – | 1.02 | 48 | 0.37
3 | C=CC(F)(F)[C@]1(O)CC[C@H]2[C@@H]3CCC4=CC(=O)CCC4=C3[C@@H](c3ccc(-c4cccnc4)cc3)C[C@@]21C [Compound 3b, 11β-(4′-[3-Pyridinyl]phenyl)-17β-hydroxy-17-(1,1-difluoroprop-2-enyl)-estra-4,9-diene-3-one] | 0/4 | – | 200 | –
4 | C[C@]12C[C@H](c3ccc(C(=O)C4CC4)cc3)C3=C4CCC(=O)C=C4CCC3C1CC[C@@]2(O)/C=C\CO (stereo partly drawn) [Compound 2d, 11β-(4′-[Cyclopropylcarbonyl]phenyl)-17β-hydroxy-17-(3-hydroxyprop-1(Z)-enyl)-estra-4,9-diene-3-one] | – | 0.99 | 6 | –
5 | C[C@]12C[C@H](c3ccc(-c4cccnc4)cc3)C3=C4CCC(=O)C=C4CCC3C1CC[C@@]2(O)/C=C/C(F)(F)F (stereo partly drawn) [Compound 3a, 11β-(4′-[3-Pyridinyl]phenyl)-17β-hydroxy-17-(3,3,3-trifluoroprop-1(E)-enyl)-estra-4,9-diene-3-one] | 0/4 | 0.87 | 190 | –
6 | CC(=O)c1ccc([C@H]2C[C@@]3(C)[C@@H](CC[C@@]3(O)C#CC(F)(F)F)[C@@H]3CCC4=CC(=O)CCC4=C32)cc1 [Compound 1a, 11β-(4′-Acetylphenyl)-17β-hydroxy-17-(3,3,3-trifluoro-1-propynyl)-estra-4,9-diene-3-one] | 1/3 | 1.3 | 6 | 17
7 | C=CC(F)(F)[C@]1(O)CC[C@H]2[C@@H]3CCC4=CC(=O)CCC4=C3[C@@H](c3ccc(C(C)=O)cc3)C[C@@]21C [Compound 1d, 11β-(4′-Acetylphenyl)-17β-hydroxy-17-(1,1-difluoroprop-2-enyl)-estra-4,9-diene-3-one] | – | – | 119 | 0.3
8 | CC#C[C@]1(O)CC[C@H]2[C@@H]3CCC4=CC(=O)CCC4=C3[C@@H](c3ccc(C(=O)c4ccc(C#N)cc4)cc3)C[C@@]21C [Compound 4, 11β-(4′-[4-Cyanobenzoyl]phenyl)-17β-hydroxy-17-(1-propynyl)-estra-4,9-diene-3-one] | – | – | 38 | –
9 | CC#C[C@]1(O)CC[C@H]2[C@@H]3CCC4=CC(=O)CCC4=C3[C@@H](c3ccc(C(=O)C4CC4)cc3)C[C@@]21C [Compound 2b, 11β-(4′-[Cyclopropylcarbonyl]phenyl)-17β-hydroxy-17-(1-propynyl)-estra-4,9-diene-3-one] | – | – | 45 | 0.64
10 | CCC(F)(F)[C@]1(O)CC[C@H]2[C@@H]3CCC4=CC(=O)CCC4=C3[C@@H](c3ccc(C(C)=O)cc3)C[C@@]21C [Compound 1e, 11β-(4′-Acetyl-phenyl)-17β-hydroxy-17-(1,1-difluoropropyl)-estra-4,9-diene-3-one] | – | – | 191 | 0.3
11 | C[C@]12C[C@H](c3ccc(C(=O)C4CC4)cc3)C3=C4CCC(=O)C=C4CC[C@H]3[C@@H]1CC[C@@]2(O)CCCO [Compound 2c, 11β-(4′-[Cyclopropylcarbonyl]phenyl)-17β-hydroxy-17-(3-hydroxypropyl)-estra-4,9-diene-3-one] | – | 1.35 | 2 | 4.6
